Experiment [1] addresses T1, DGKα (Homo sapiens (Human), UniProt P23743). Description: biochemical. It counts as biochemical. The settings on record: liposome (LIPGLO) assay; read-out: DGKα LIPGLO IC50.
Experiment [2] has as its target human DGKζ (Homo sapiens (Human), UniProt Q13574). The experiment can be described thus: biochemical. The settings on record: liposome (LIPGLO) assay; read-out: DGKζ LIPGLO IC50. It counts as biochemical.
The test system of experiment [3] is Human venous whole blood (IFN-γ). Description: Human whole blood IFN-γ assay. It counts as cell-based. The settings on record: read-out: INFg Whole Blood Normalized Agonist EC50; human whole blood, anti-CD3 plus anti-CD28, 24 hours. Here is the method: Assay 10: Human Whole Blood IFN-γ Assay
Human venous whole blood (22.5 μL per well), obtained from healthy donors, was pre-treated with compounds for one hour at 37° C. in a humidified 95% air/5% CO2 incubator. The blood was stimulated with 2.5 μL anti-human CD3 and anti-CD28 mAb at a final concentration of 1 μg/mL each for 24 hours at 37° C. IFN-γ in the supernatants was measured using AlphLISA kit (Cat #AL217).

Experiment [4] has as its target T1, DGKα. The experiment can be described thus: DGKα ADPGLO assay. It is filed as biochemical. In general terms: ADP-Glo turns the ADP formed in a reaction into a luminescent signal.

Structures are written as SMILES.

T1 sequence (P23743 whole entry, looked up): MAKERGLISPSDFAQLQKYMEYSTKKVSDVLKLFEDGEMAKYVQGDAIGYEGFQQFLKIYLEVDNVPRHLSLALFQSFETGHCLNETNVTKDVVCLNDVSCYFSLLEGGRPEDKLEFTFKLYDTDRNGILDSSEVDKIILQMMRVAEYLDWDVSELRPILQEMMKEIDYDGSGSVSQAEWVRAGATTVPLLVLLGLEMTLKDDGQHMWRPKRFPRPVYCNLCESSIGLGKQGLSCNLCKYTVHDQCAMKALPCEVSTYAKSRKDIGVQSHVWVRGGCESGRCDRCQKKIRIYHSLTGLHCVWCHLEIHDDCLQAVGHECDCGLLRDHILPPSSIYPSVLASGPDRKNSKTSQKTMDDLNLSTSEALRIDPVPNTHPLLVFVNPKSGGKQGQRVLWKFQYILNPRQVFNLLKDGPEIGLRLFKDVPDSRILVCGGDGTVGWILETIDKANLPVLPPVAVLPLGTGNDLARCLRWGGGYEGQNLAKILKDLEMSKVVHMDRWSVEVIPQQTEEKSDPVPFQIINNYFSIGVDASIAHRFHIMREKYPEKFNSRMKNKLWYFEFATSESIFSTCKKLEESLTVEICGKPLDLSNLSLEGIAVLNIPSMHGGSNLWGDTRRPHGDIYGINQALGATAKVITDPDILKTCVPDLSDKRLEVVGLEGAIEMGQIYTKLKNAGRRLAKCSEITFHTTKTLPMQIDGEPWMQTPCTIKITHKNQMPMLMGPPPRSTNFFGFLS
human DGKζ, sequence (Q13574 whole entry, looked up): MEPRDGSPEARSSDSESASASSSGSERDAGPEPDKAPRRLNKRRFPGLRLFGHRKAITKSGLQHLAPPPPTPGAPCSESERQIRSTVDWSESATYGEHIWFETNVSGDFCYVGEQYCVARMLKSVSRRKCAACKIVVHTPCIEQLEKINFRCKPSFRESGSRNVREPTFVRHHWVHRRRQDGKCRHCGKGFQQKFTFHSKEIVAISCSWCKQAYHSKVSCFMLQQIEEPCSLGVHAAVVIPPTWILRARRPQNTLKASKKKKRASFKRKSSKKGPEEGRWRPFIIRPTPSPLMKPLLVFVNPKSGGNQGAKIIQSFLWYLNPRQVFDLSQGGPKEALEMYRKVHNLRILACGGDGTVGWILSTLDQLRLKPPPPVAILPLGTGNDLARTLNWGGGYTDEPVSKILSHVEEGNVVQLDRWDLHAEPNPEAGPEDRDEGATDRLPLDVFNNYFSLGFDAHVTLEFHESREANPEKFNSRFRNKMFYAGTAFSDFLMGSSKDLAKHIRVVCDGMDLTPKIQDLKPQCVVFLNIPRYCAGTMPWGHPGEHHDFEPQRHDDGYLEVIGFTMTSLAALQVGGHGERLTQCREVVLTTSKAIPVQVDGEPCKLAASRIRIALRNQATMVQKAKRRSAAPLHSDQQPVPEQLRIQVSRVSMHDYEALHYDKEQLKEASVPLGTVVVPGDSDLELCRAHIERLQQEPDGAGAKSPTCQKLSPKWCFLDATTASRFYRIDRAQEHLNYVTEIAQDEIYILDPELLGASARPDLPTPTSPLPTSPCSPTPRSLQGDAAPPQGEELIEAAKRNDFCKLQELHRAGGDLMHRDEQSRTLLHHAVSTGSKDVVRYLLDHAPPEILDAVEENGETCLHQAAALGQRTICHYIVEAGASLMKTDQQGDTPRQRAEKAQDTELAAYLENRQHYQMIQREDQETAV

In general, IC50 refers to the concentration needed to halve the response being measured. The term EC50 denotes the concentration needed to bring the measured effect to its halfway point. On to `CC[C@@H]1CN(c2cc(=O)n(C)c3ccc(C#N)nc23)CC[C@H]1Oc1cccc(C(C)C)c1` (single isomer, unassigned) [Example 138], for which the IC50 in experiment [1] was 24 nM; in experiment [2], 800 nM; in experiment [4] it was 5.2 nM. Also, the EC50 in experiment [3] was 340 nM.
